Tests used:
Assay in all cases: relative viability (nuclei count vs DMSO), 5 days (fraction); higher = more cells survive
[1] = compound: CCn1c(-c2nonc2N)nc2c(C#CC(C)(C)O)ncc(OC[C@H]3CCCNC3)c21 + N=C(N)NC(=N)NCCc1ccccc1 [Phenformin] (partner 250 µM)
Outline: (§1)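 Lung cancer cell lines in 1536-well plates were dosed by pin tool the day after seeding, either with one drug alone or with a fixed anchor-drug dose plus five library-drug doses (not always all listed) in √10 steps. After 5 days, cells were fixed and their nuclei stained in one step (final 0.05% Triton X-100, 1% formaldehyde, 1 ug/ml Hoechst), then counted on 4× images. Relative viability is the nuclei count in treated wells divided by that in vehicle wells. Values are medians of duplicate plates.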

[2] = compound: CCn1c(-c2nonc2N)nc2c(C#CC(C)(C)O)ncc(OC[C@H]3CCCNC3)c21 + COc1cc2c(Oc3ccc(NC(=O)C4(C(=O)Nc5ccc(F)cc5)CC4)cc3F)ccnc2cc1OCCCN1CCOCC1 [Foretinib] (partner 0.25 µM)
Outline: as §1

BAM7 + Alpelisib = compound: CCOC1=CC=CC=C1N=NC2=C(NN(C2=O)C3=NC(=CS3)C4=CC=CC=C4)C [BAM7] + Cc1nc(NC(=O)N2CCC[C@H]2C(N)=O)sc1-c1ccnc(C(C)(C)C(F)(F)F)c1 [Alpelisib] (partner 2 µM)
Outline: as §1

BAM7 + Dasatinib = compound: CCOC1=CC=CC=C1N=NC2=C(NN(C2=O)C3=NC(=CS3)C4=CC=CC=C4)C [BAM7] + Cc1nc(Nc2ncc(C(=O)Nc3c(C)cccc3Cl)s2)cc(N2CCN(CCO)CC2)n1 [Dasatinib] (partner 0.075 µM)
Outline: as §1

| Cell Line | relative viability ([1]; first compound 0.01 µM) | relative viability ([1]; first compound 0.03162 µM) | relative viability ([1]; first compound 0.1 µM) | relative viability ([1]; first compound 0.3162 µM) | relative viability ([1]; first compound 1 µM) | relative viability ([2]; first compound 0.01 µM) | relative viability ([2]; first compound 0.03162 µM) | relative viability ([2]; first compound 0.1 µM) | relative viability ([2]; first compound 0.3162 µM) | relative viability ([2]; first compound 1 µM) | relative viability (BAM7 + Alpelisib; first compound 0.5 µM) | relative viability (BAM7 + Alpelisib; first compound 5 µM) | relative viability (BAM7 + Alpelisib; first compound 15.81 µM) | relative viability (BAM7 + Alpelisib; first compound 50 µM) | relative viability (BAM7 + Dasatinib; first compound 0.5 µM) | relative viability (BAM7 + Dasatinib; first compound 5 µM) | relative viability (BAM7 + Dasatinib; first compound 15.81 µM) | relative viability (BAM7 + Dasatinib; first compound 50 µM) |
| --- | --- | --- | --- | --- | --- | --- | --- | --- | --- | --- | --- | --- | --- | --- | --- | --- | --- | --- |
| HCC-827 | 0.395 | 0.37 | 0.388 | 0.402 | 0.402 | 1.02 | 1.09 | 1.01 | 1.06 | 1.02 | 1.03 | 0.97 | 1.01 | 1 | 0.29 | 0.234 | 0.313 | 0.264 |
| HOP-62 | 0.662 | 0.687 | 0.635 | 0.649 | 0.687 | 1.08 | 1.13 | 1.08 | 0.985 | 1.16 | 0.921 | 0.826 | 0.901 | 0.797 | 0.636 | 0.727 | 0.601 | 0.649 |
| IA-LM | – | – | – | – | – | 0.955 | 1.02 | 1.09 | 0.946 | 0.923 | 0.67 | 0.648 | 0.659 | 0.994 | – | – | – | – |
| LC-2-ad | 0.571 | 0.523 | 0.556 | 0.537 | 0.614 | 0.94 | 0.906 | 0.923 | 0.909 | 1.01 | 0.998 | 0.893 | 0.746 | 0.855 | 0.8 | 0.555 | 0.546 | 0.639 |
| LCLC-97TM1 | 0.375 | 0.49 | 0.444 | 0.435 | 0.427 | 1.03 | 0.91 | 1.01 | 0.877 | 0.874 | 0.303 | 0.235 | 0.235 | 0.316 | 1.05 | 1.04 | 0.881 | 0.945 |
| LCLC-103H | 0.323 | 0.355 | 0.33 | 0.329 | 0.327 | 0.792 | 0.981 | 0.749 | 0.736 | 0.847 | 0.998 | 0.837 | 1.08 | 0.984 | 0.46 | 0.512 | 0.523 | 0.523 |
| LK-2 | 0.515 | 0.392 | – | – | 0.455 | 0.994 | 1.15 | – | – | 1.09 | 1.14 | 1.78 | 1.16 | 0.874 | 0.242 | 0.299 | 0.255 | 0.447 |
| LOU-NH91 | 0.683 | 0.566 | 0.686 | 0.607 | 0.635 | 0.929 | 0.962 | 0.964 | 0.861 | 0.907 | 0.753 | 0.728 | 0.629 | 0.684 | 0.495 | 0.658 | 0.535 | 0.552 |
| LU99A | 0.847 | 0.839 | 0.774 | 0.748 | 0.837 | 0.797 | 0.797 | 0.814 | 0.776 | 0.899 | 0.588 | 0.489 | 0.532 | 0.597 | 0.661 | 0.642 | 0.577 | 0.476 |
| LXF-289 | 0.511 | 0.54 | 0.507 | 0.511 | 0.534 | 0.983 | 1.05 | 0.979 | 0.952 | 0.955 | 1.1 | 1.11 | 1.02 | 1.07 | 0.276 | 0.235 | 0.256 | 0.253 |
| NCI-H23 | 0.729 | 0.783 | 0.817 | 0.8 | 0.781 | 0.971 | 1.15 | 1.06 | 0.918 | 0.916 | 0.743 | 0.782 | 0.656 | 0.723 | 0.892 | 0.813 | 0.732 | 0.868 |
| NCI-H322M | 0.717 | 0.727 | 0.677 | 0.7 | 0.744 | 0.823 | 0.881 | 0.879 | 0.816 | 0.911 | 0.859 | 0.816 | 0.803 | 0.801 | 0.271 | 0.287 | 0.287 | 0.281 |
| NCI-H358 | 0.39 | 0.321 | 0.338 | 0.315 | 0.32 | 0.646 | 0.977 | 0.657 | 0.73 | 0.663 | 0.953 | 0.837 | 0.859 | 0.85 | 0.202 | 0.217 | 0.197 | 0.254 |
| NCI-H522 | 0.636 | 0.648 | 0.629 | 0.576 | 0.624 | – | – | – | – | – | – | – | – | – | 0.872 | 0.976 | 0.828 | 0.827 |
| NCI-H1299 | – | – | – | – | – | 1.09 | 1.08 | 1.06 | 0.717 | 1.16 | 1.06 | 1.1 | 1.03 | 0.992 | – | – | – | – |
| NCI-H1623 | 0.604 | 0.526 | 0.6 | 0.56 | 0.473 | 0.855 | 0.849 | 0.793 | 0.882 | 0.676 | – | – | – | – | 0.576 | 0.56 | 0.573 | 0.641 |
| NCI-H1650 | 0.457 | 0.478 | 0.404 | 0.277 | 0.303 | 1.07 | 1.01 | 1.3 | 0.933 | 1.02 | – | – | – | – | 0.338 | 0.278 | 0.277 | 0.337 |
| NCI-H1703 | – | – | – | – | – | 0.333 | 0.313 | 0.347 | 0.248 | 0.356 | 0.316 | 0.322 | 0.291 | 0.36 | – | – | – | – |
| NCI-H1792 | 0.203 | 0.291 | 0.258 | 0.262 | 0.299 | – | – | – | – | – | 0.782 | 0.85 | 0.624 | 0.708 | 0.827 | 0.833 | 0.665 | 0.822 |
| NCI-H2342 | 0.532 | 0.627 | 0.598 | 0.545 | 0.574 | 1.1 | 1.19 | 1.04 | 1.07 | 1.09 | – | – | – | – | 0.286 | 0.343 | 0.352 | 0.316 |
| SW 900 | 0.505 | 0.621 | 0.671 | 0.601 | 0.49 | 0.92 | 0.887 | 0.875 | 0.798 | 0.768 | – | – | – | – | 0.358 | 0.398 | 0.711 | 0.656 |

Reference: the supplement of paper PMC10307832
